Key:
Format in all cases: cell-based, Elaeis guineensis
oil palm protoplasts [1] = assay: Plant growth regulators (PGRs) optimization on agarose solidified cultures; details: within PGR combinations, Y3A or Y3D media
Experimental: The PGRs optimization was performed on agarose solidified cultures. All PGRs used were prepared at the concentration of 1 μM/μl and the pH was adjusted to 5.7. The filter-sterilized PGRs were added in 24 wells culture plate at different combinations and concentration as indicated in Table 3.
Protoplast division frequency was calculated by counting the number of protoplasts divided by the total number of protoplasts in one representative microscope field. Three microscopic fields were averaged to represent one experiment in which the experiment was performed in 3 replicates to give an average range of protoplast division frequency. A similar calculation procedure was used for microcolonies and microcalli formation frequencies.

microcalli = assay: Control of callus browning in agarose bead culture; details: additive in Y35N5D2iP liquid media surrounding agarose beads; AA 200 mg/l
Experimental: The mixture of protoplasts and agarose was prepared by using the same procedure for preparation of agarose solidified cultures with the exception that the protoplast pellet was resuspended in […] liquid media supplemented with the optimum PGRs and 0.6% w/v agarose sea plaque. Agarose beads were prepared by dropping 200 μl of the mixture into a 60 mm×15 mm petri dish. After agarose solidification, 10 ml of 21% v/v osmoticum solution was added to Petri dish and incubated at 28° C. in the dark for 3-5 days. Three types of osmoticum solutions were used: sucrose, glucose and mannitol. Each was dissolved in water, adjusting the pH to 5.7 and then filter-sterilized. The osmoticum solution was replaced with different liquid media in shaking condition at 50 rpm by refreshing the media at 14-day intervals. When the formation of microcolonies was observed, […] liquid media was changed to Y3 liquid media and the agarose beads were cultured until the microcalli were detected. […] The cultures were continued until the microcalli growth to embryogenic calli.

oil palm protoplasts [2] = assay: DNA microinjection mediated transformation of alginate layer-embedded protoplasts; details: in injected protoplasts at 28° C.
Experimental: Protoplasts were isolated from a 7 day subculture of a 3 month old embryogenic suspension culture as described above. After twice repeating the washing step, the supernatant was mostly removed leaving 3 ml Washing solution. The centrifuge tube containing the protoplast suspension was incubated in a vertical position in the dark for 24 hours at 28° C. After incubation, the protoplast suspension was diluted by 10 ml of Rinse solution and resuspended by inverting the centrifuge tube for 3-5 times, and then centrifuged at 60×g for 5 minutes at 22° C. After repeating the rinsing step, the supernatant was removed completely and the protoplast pellet was embedded with 3 ml filter-sterilized ([…]) alginate solution consisted of 1% w/v alginic acid sodium salt (A2158, Sigma) dissolved in Y3A liquid media (5.5% w/v sucrose and 11.9% w/v glucose supplemented with 10 μM NAA, 2 μM 2.4-D, 2 μM IBA, 2 μM GA3, 2 μM 2iP and 200 mg/L ascorbic acid) adjusted to pH 5.6, in which the Y3 macroelements was prepared without calcium chloride (CaCl2.2H2O).
Alginate-embedded protoplasts were distributed as a thin layer onto supporting media comprising, 1.5 mL filter-sterilized Y3A (5.5% w/v sucrose and 11.9% w/v glucose supplemented with 0.1% w/v CaCl2.2H2O) solidified with 1% w/v agarose sea plaque, in 35 mm×10 mm petri dish (no. 627161, Greiner Bio-One, Germany). […]

Molecule	Cell division at concentration higher than 7 μM (oil palm protoplasts [1])	other results
O=C(O)COc1ccc(Cl)cc1Cl [2,4-D, 2,4-Dichlorophenoxyacetic acid]	inhibited cell division	–
CC(C)=CCNc1ncnc2nc[nH]c12 [2iP, 2-γ-Dimethylallylaminopurine]	inhibited cell division	–
O=C1O[C@H]([C@@H](O)CO)C(O)=C1O [AA, Ascorbic acid]	–	Microcalli browning / development of embryogenic callus (microcalli): developed embryogenic callus
O=[N+]([O-])[O-].[Ag+] [AgNO3, Silver nitrate]	–	Microcalli browning / development of embryogenic callus (microcalli): did not solve the problem of browning
C=C1C[C@]23C[C@@]1(O)CC[C@H]2[C@@]12C=C[C@H](O)[C@@](C)(C(=O)O1)[C@H]2[C@@H]3C(=O)O [GA3, Gibberellic acid A3]	inhibited cell division	–
O=C(O)CCCc1c[nH]c2ccccc12 [IBA, Indole-3-butyric acid]	inhibited cell division	–
Lucifer Yellow CH dilithium salt	–	Time the fluorescence property is maintained (oil palm protoplasts [2]): 48 h

Reference: patent US20150216136A1, “PLANT REGENERATION FROM PROTOPLASTS DERIVED FROM ELAEIS sp SUSPENSION CULTURES” (MALAYSIAN PALM OIL BOARD, priority 2012, published 2015)
